# Reference: patent US20250388553A1 (Incyte Corporation, priority 2018, published 2025)
# Counter-ions that a name gives are not always drawn.
# How the values were obtained:
# [1] = molecular target: PI3Kγ (p110γ) Recombinant Human Protein (Homo sapiens (Human), UniProt P48736); assay: PI3K-γ scintillation proximity assay; format: biochemical; conditions: scintillation proximity assay, recombinant human p110γ
# Description: Example B. PI3K-γ Scintillation Proximity Assay
# (§1) Materials: [γ-^33P]ATP (10 mCi/mL) and Wheat Germ Agglutinin (WGA) YSi SPA Scintillation Beads was purchased from Perkin Elmer (Waltham, MA). Lipid kinase substrate, D-myo-Phosphatidylinositol 4,5-bisphosphate (PtdIns(4,5)P2)D (+)-sn-1,2-di-O-octanoylglyceryl, 3-O-phospho linked (PIP2), CAS 204858-53-7, was purchased from Echelon Biosciences (Salt Lake City, UT). PI3Kγ (p110γ) Recombinant Human Protein was purchased from Life technology (Grand Island, NY). ATP, MgCl2, DTT, EDTA, MOPS and CHAPS were purchased from Sigma Aldrich (St. Louis, MO).
# (§2) The kinase reaction was conducted in polystyrene 384-well Greiner Bio-one white plate from Thermo Fisher Scientific in a final volume of 25 L. Inhibitors were first diluted serially in DMSO and added to the plate wells before the addition of other reaction components. The final concentration of DMSO in the assay was 2%. The PI3Kγ assay was carried out at room temperature in 20 mM MOPS, pH 6.7, 10 mM MgCl2, 5 mM DTT and CHAPS 0.03%. Reactions were initiated by the addition of ATP, the final reaction mixture consisted of 20 µM […], 0.5 μCi [γ-^33P]ATP, 13 nM PI3Kγ. Reactions were incubated for 120 min and terminated by the addition of 40 μL SPA beads suspended in quench buffer: 163 mM potassium phosphate pH 7.8, 20% glycerol, 25 mM EDTA. The final concentration of SPA beads is 1.0 mg/mL. After the plate sealing, plates were shaken overnight at room temperature and centrifuged at 1500 rpm for 10 min, the radioactivity of the product was determined by scintillation counting on Topcount (Perkin-Elmer). IC50 determination was performed by fitting the curve of percent of the solvent control activity versus the log of the inhibitor concentration using the GraphPad Prism 6.0 software.
# (§3) The compounds of the Examples were tested in the assays described in Examples A, B and C and found to have the IC50s are shown in Tables A1, A2, A3 and A4.
# [2] = molecular target: PI3Kδ (p1106/p85a) Recombinant Human Protein (Homo sapiens (Human), UniProt O00329); assay: PI3Kδ scintillation proximity assay; format: biochemical; conditions: scintillation proximity assay, recombinant human PI3Kδ
# Description: Example C. PI3Kδ Scintillation Proximity Assay
# as §1, with “PI3Kδ (p1106/p85a)” for “PI3Kγ (p110γ)”, “Eurofins (St Charles, MO).” for “Life technology (Grand Island, NY).”
# as §2, with “25 μL.” for “25 L.”, “The PI3Kδ” for “The PI3Kγ”, “[γ-^33P]ATP, 3.4” for “[γ-^33P]ATP, 13”, “nM PI3Kδ.” for “nM PI3Kγ.”, “Topcount (PerkinElmer).” for “Topcount (Perkin-Elmer).”
# as §3
# Chain of PI3Kδ (p1106/p85a) Recombinant Human Protein (O00329 whole entry): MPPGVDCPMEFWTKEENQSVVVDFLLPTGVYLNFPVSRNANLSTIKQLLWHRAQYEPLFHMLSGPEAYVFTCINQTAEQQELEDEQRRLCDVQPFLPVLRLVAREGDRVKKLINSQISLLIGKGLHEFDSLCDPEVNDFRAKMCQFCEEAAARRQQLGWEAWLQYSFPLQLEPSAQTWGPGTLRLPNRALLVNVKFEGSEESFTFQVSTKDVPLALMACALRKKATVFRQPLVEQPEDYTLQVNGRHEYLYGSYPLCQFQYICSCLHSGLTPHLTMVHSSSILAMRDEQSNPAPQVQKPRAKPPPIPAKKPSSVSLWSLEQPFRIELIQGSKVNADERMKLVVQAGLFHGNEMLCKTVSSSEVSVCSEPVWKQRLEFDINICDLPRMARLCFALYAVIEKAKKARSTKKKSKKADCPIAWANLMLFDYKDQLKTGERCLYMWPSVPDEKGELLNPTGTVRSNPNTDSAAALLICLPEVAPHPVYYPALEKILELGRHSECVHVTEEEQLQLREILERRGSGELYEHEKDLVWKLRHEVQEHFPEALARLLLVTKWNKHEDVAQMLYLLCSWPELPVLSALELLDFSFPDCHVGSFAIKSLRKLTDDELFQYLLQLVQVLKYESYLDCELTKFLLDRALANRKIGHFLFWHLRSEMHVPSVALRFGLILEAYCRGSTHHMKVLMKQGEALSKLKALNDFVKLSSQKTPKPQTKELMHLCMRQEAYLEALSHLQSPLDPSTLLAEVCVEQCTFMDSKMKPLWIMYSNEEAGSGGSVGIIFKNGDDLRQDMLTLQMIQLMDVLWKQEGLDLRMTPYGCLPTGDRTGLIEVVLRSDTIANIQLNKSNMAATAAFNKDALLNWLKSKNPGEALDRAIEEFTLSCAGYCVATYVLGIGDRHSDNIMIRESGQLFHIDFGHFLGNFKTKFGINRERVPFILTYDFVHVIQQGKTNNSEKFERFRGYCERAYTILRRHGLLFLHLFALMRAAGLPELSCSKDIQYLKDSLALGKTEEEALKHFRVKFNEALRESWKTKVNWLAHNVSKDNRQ
# Chain of PI3Kδ (p1106/p85a) Recombinant Human Protein (P27986 whole entry partner): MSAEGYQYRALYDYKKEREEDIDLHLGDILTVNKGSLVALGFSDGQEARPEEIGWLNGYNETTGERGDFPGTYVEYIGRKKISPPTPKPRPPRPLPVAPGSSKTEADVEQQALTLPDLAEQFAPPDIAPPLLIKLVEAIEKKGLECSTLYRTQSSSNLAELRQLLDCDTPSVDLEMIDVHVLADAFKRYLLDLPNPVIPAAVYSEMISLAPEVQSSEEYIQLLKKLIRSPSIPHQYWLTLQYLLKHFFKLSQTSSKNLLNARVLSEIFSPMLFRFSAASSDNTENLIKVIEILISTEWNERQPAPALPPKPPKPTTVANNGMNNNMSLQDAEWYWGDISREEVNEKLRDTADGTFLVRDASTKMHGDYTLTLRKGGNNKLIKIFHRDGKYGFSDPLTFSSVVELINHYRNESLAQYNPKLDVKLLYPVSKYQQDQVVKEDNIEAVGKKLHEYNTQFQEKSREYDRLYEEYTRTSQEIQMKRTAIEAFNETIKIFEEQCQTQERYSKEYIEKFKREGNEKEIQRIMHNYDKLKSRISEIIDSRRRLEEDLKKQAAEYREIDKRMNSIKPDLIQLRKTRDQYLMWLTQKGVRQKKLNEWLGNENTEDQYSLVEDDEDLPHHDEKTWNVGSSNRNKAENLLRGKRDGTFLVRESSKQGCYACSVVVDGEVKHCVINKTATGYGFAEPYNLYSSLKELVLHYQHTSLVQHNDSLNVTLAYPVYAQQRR
# Chain of PI3Kγ (p110γ) Recombinant Human Protein (P48736 whole entry): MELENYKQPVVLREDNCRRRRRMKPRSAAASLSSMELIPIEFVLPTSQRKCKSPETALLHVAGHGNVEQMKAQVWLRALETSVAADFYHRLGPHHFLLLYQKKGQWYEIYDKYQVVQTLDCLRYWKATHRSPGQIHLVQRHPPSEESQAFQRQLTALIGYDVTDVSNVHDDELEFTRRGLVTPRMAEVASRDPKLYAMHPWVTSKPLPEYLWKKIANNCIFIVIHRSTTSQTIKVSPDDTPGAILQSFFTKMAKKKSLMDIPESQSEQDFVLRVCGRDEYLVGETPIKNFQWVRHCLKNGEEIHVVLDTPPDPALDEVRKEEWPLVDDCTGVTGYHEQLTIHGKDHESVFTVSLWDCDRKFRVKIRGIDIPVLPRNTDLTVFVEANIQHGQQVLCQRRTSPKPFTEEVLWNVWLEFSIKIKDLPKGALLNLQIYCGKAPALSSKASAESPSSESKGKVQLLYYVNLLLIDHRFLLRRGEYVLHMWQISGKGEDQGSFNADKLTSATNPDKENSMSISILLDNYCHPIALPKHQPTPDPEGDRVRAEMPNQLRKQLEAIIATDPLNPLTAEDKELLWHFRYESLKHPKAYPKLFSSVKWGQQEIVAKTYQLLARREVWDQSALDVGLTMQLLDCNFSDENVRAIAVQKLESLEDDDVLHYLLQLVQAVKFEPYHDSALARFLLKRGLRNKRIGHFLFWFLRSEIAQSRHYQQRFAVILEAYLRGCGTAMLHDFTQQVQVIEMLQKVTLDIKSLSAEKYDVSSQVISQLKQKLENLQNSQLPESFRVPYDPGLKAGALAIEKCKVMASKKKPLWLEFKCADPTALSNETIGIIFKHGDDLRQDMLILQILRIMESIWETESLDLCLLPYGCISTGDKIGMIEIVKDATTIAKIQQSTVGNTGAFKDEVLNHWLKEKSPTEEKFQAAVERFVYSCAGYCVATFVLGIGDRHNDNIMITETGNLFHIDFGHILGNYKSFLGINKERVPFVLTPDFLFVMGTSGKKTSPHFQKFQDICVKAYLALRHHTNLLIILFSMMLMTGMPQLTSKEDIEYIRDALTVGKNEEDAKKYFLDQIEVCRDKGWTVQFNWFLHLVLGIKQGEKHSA
Compound,IC50 ([1]; Table A2) [nM],IC50 ([2]; Table A2) [nM],IC50 ([1]; Table A3) [nM],IC50 ([2]; Table A3) [nM]
"Cc1ccc(C(O)(C(N)=O)C(F)(F)F)cc1-c1cnc(N)c(C#Cc2ccccn2)n1 (centres unmarked) [Example 55, 2-(3-(5-amino-6-(pyridin-2-ylethynyl)pyrazin-2-yl)-4-methylphenyl)-3,3,3-trifluoro-2-hydroxypropanamide]",< 100,< 100,–,–
"Cc1ccc(C(O)(C(N)=O)C(F)(F)F)cc1-c1cnc(N)c(C#Cc2ccc(C#N)cc2)n1 (centres unmarked) [Example 58, 2-(3-(5-amino-6-((4-cyanophenyl)ethynyl)pyrazin-2-yl)-4-methylphenyl)-3,3,3-trifluoro-2-hydroxypropanamide]",< 100,< 100,–,–
"Cc1ccc(C(O)(C(N)=O)C(F)(F)F)cc1-c1cnc(N)c(C#CC(C)(O)C(C)C)n1 (centres unmarked) [Example 62, 2-(3-(5-amino-6-(3-hydroxy-3,4-dimethylpent-1-ynyl)pyrazin-2-yl)-4-methylphenyl)-3,3,3-trifluoro-2-hydroxypropanamide]",< 100,< 100,–,–
"Cc1ccc(C(O)(C(N)=O)C(F)(F)F)cc1-c1cnc(N)c(C#CC2(C)CCOCC2)n1 (centres unmarked) [Example 64, 2-(3-(5-amino-6-((4-methyltetrahydro-2H-pyran-4-yl)ethynyl)pyrazin-2-yl)-4-methylphenyl)-3,3,3-trifluoro-2-hydroxypropanamide]",< 100,< 100,–,–
"Cc1ccc(C(O)(C(N)=O)C(F)(F)F)cc1-c1cnc(N)c(C#CC2(O)CCN(C)C2=O)n1 (centres unmarked) [Example 65, 2-(3-(5-amino-6-((3-hydroxy-1-methyl-2-oxopyrrolidin-3-yl)ethynyl)pyrazin-2-yl)-4-methylphenyl)-3,3,3-trifluoro-2-]",< 100,< 100,–,–
"Cc1cnc(C#Cc2nc(-c3cc(C(O)(C(N)=O)C(F)(F)F)ccc3C)cnc2N)cn1 (centres unmarked) [Example 66, 2-(3-(5-amino-6-((5-methylpyrazin-2-yl)ethynyl)pyrazin-2-yl)-4-methylphenyl)-3,3,3-trifluoro-2-hydroxypropanamide]",< 100,< 100,–,–
"COc1cnc(C#Cc2nc(-c3cc(C(O)(C(N)=O)C(F)(F)F)ccc3C)cnc2N)cn1 (centres unmarked) [Example 67, 2-(3-(5-amino-6-((5-methoxypyrazin-2-yl)ethynyl)pyrazin-2-yl)-4-methylphenyl)-3,3,3-trifluoro-2-hydroxypropanamide]",< 100,< 100,–,–
"Cc1ccc(C(O)(C(N)=O)C(F)(F)F)cc1-c1cnc(N)c(-c2ccnn2C)n1 (centres unmarked) [Example 69, 2-(3-(5-Amino-6-(1-methyl-1H-pyrazol-5-yl)pyrazin-2-yl)-4-methylphenyl)-3,3,3-trifluoro-2-hydroxypropanamide trifluoroacetate]",–,–,< 100,< 100
"Cc1ccc(C(O)(C(N)=O)C(F)(F)F)cc1-c1cnc(N)c(-n2cccn2)n1 (centres unmarked) [Example 93, 2-(3-(5-Amino-6-(1H-pyrazol-1-yl)pyrazin-2-yl)-4-methylphenyl)-3,3,3-trifluoro-2-hydroxypropanamide]",–,–,< 100,< 100

# The remaining lines, values ahead:
IC50 ([1]; Table A2) [nM],IC50 ([2]; Table A2) [nM],IC50 ([1]; Table A3) [nM],IC50 ([2]; Table A3) [nM],Compound
< 100,< 100,–,–,"Cc1ccc(C(O)(C(N)=O)C(F)(F)F)cc1-c1cnc(N)c(C#Cc2cnn(C)c2)n1 (centres unmarked) [Example 54, 2-(3-(5-amino-6-((1-methyl-1H-pyrazol-4-yl)ethynyl)pyrazin-2-yl)-4-methylphenyl)-3,3,3-trifluoro-2-hydroxypropanamide]"
< 100,< 100,–,–,"Cc1ccc(C(O)(C(N)=O)C(F)(F)F)cc1-c1cnc(N)c(C#Cc2cncnc2)n1 (centres unmarked) [Example 56, 2-(3-(5-amino-6-(pyrimidin-5-ylethynyl)pyrazin-2-yl)-4-methylphenyl)-3,3,3-trifluoro-2-hydroxypropanamide]"
< 100,< 100,–,–,"Cc1ccc(C(O)(C(N)=O)C(F)(F)F)cc1-c1cnc(N)c(C#Cc2cnccn2)n1 (centres unmarked) [Example 57, 2-(3-(5-amino-6-(pyrazin-2-ylethynyl)pyrazin-2-yl)-4-methylphenyl)-3,3,3-trifluoro-2-hydroxypropanamide]"
< 100,< 100,–,–,"Cc1ccc(C(O)(C(N)=O)C(F)(F)F)cc1-c1cnc(N)c(C#Cc2ccc(CC#N)cc2)n1 (centres unmarked) [Example 59, 2-(3-(5-amino-6-((4-(cyanomethyl)phenyl)ethynyl)pyrazin-2-yl)-4-methylphenyl)-3,3,3-trifluoro-2-hydroxypropanamide]"
< 100,< 100,–,–,"COc1cc(C#Cc2nc(-c3cc(C(O)(C(N)=O)C(F)(F)F)ccc3C)cnc2N)cc(OC)c1 (centres unmarked) [Example 60, 2-(3-(5-amino-6-((3,5-dimethoxyphenyl)ethynyl)pyrazin-2-yl)-4-methylphenyl)-3,3,3-trifluoro-2-hydroxypropanamide]"
< 100,< 100,–,–,"Cc1ccc(C(O)(C(N)=O)C(F)(F)F)cc1-c1cnc(N)c(C#Cc2cccc(F)c2)n1 (centres unmarked) [Example 61, 2-(3-(5-amino-6-((3-fluorophenyl)ethynyl)pyrazin-2-yl)-4-methylphenyl)-3,3,3-trifluoro-2-hydroxypropanamide]"
< 100,< 100,–,–,"Cc1ccc(C(O)(C(N)=O)C(F)(F)F)cc1-c1cnc(N)c(C#CC2CCOCC2)n1 (centres unmarked) [Example 63, 2-(3-(5-amino-6-((tetrahydro-2H-pyran-4-yl)ethynyl)pyrazin-2-yl)-4-methylphenyl)-3,3,3-trifluoro-2-hydroxypropanamide]"
< 100,< 100,–,–,"Cc1ccc(C(O)(C(N)=O)C(F)(F)F)cc1-c1cnc(N)c(C#Cc2cn3ccnc3cn2)n1 (centres unmarked) [Example 68, 2-(3-(5-amino-6-(imidazo[1,2-a]pyrazin-6-ylethynyl)pyrazin-2-yl)-4-methylphenyl)-3,3,3-trifluoro-2-hydroxypropanamide]"
–,–,< 100,< 100,"CNC(=O)C(O)(c1ccc(C)c(-c2cnc(N)c(-n3cncn3)n2)c1)C(F)(F)F (centres unmarked) [Example 94, 2-(3-(5-Amino-6-(1H-1,2,4-triazol-1-yl)pyrazin-2-yl)-4-methylphenyl)-3,3,3-trifluoro-2-hydroxy-N-methylpropanamide trifluoroacetate]"
–,–,100 to 500,100 to 500,"Cc1ccc(C(O)(C(=O)N(C)C)C(F)(F)F)cc1-c1cnc(N)c(-n2cncn2)n1 (centres unmarked) [Example 95, 2-(3-(5-Amino-6-(1H-1,2,4-triazol-1-yl)pyrazin-2-yl)-4-methylphenyl)-3,3,3-trifluoro-2-hydroxy-N,N-dimethylpropanamide trifluoroacetate]"
–,–,< 100,100 to 500,"CNC(=O)C(O)(c1ccc(C)c(-c2cnc(N)c(-c3cnn(C)c3)n2)c1)C(F)(F)F (centres unmarked) [Example 96, 2-(3-(5-Amino-6-(1-methyl-1H-pyrazol-4-yl)pyrazin-2-yl)-4-methylphenyl)-3,3,3-trifluoro-2-hydroxy-N-methylpropanamide]"
–,–,< 100,< 100,"Cc1ccc(C(O)(C(N)=O)C(F)F)cc1-c1cnc(N)c(-c2ccnn2C)n1 (centres unmarked) [Example 98, 2-(3-(5-Amino-6-(1-methyl-1H-pyrazol-5-yl)pyrazin-2-yl)-4-methylphenyl)-3,3-difluoro-2-hydroxypropanamide]"
–,–,< 100,< 100,"Cc1ncc(-c2nc(-c3cc(C(O)(C(N)=O)C(F)F)ccc3C)cnc2N)o1 (centres unmarked) [Example 100, 2-(3-(5-amino-6-(2-methyloxazol-5-yl)pyrazin-2-yl)-4-methylphenyl)-3,3-difluoro-2-hydroxypropanamide]"
